Columns and labels:
[1] = Ocular tissue, urine and plasma levels of total radioactivity following a single intravitreal dose; type: in vivo, New Zealand White rabbits
Method: A randomized, single treatment study, in nine groups of three NZW rabbits per group, was conducted. Animals were assigned to study groups by a computerized randomization program designed to achieve similar body weights per group. Naïve animals received an intra-vitreous injection of the test article at a nominal dose of 2.0 mg*eq [^14C]Tempol-H (1,4-dihydroxy-2,2,6,6-tetramethylpiperidine(2,4,6-^14C3)). A dose of 0.1 mL, containing 2.18 μCi was administered into both eyes. At nine specified time points post dose (1, 30, 60 minutes, 2, 4, 8, 24, 48, and 120 hours), three animals per group were euthanized and terminal samples were collected. The following tissues were harvested from each eye of all animals: aqueous humor, cornea, iris/ciliary body complex, vitreous humor, lens, retina-choroid plexus and optic nerve. Blood was collected from the marginal ear vein of all rabbits into tubes containing K3EDTA; urine was cage-collected daily from three animals up to 120 hour post dosing. Total radioactivity was determined in all samples by liquid scintillation counting.

lens epithelial cells = details: Mitchell et al. 1991; Krishna et al. 1991; cited from earlier work
cataract = details: Zigler et al., U.S. Pat. No. 6,001,853; cited from earlier work
[2] = tested on: retinal S-antigen-induced experimental autoimmune uveoretinitis (EAU); details: systemic injection, rat model (Zamir et al. 1999); cited from earlier work
[3] = New Zealand White, rabbit, in vivo, 8 h

SMILES	concentration of radioactivity in the aqueous humor [1, 3] [μg eq/g]	concentration of radioactivity in the cornea [1, 3] [μg eq/g]	concentration of radioactivity in the iris/ciliary body [1, 3] [μg eq/g]	concentration of radioactivity in the lens [1, 3] [μg eq/g]	concentration of radioactivity in the optic nerve [1, 3] [μg eq/g]	concentration of radioactivity in the retina-choroid plexus [1, 3] [μg eq/g]	concentration of radioactivity in the vitreous humor [1, 3] [μg eq/g]	tissues with the highest concentrations of radioactivity ([1]; one minute post dosing, intravitreal)	levels of total radioactivity in sampled ocular tissues, blood and plasma ([1]; single intravitreal dose, all sampled ocular tissues, blood and plasma)	protection of lens epithelial cells from oxidative damage (lens epithelial cells)	anti-cataractogenic effect compared with the corresponding nitroxide (cataract)	severity of experimental autoimmune uveoretinitis [2]
CC1(C)CC(O)CC(C)(C)N1O [Tempol-H, 1,4-dihydroxy-2,2,6,6-tetramethylpiperidine]	~30±8	~2±0.1	~6±0.5	~41±6	~4±0.5	~18±2	~25±3	retina-choroid plexus, vitreous humor and iris-ciliary body complex	Quantifiable levels of total radioactivity were observed in all sampled ocular tissues, blood and plasma	afforded no such protection	better anti-cataractogenic composition than the corresponding nitroxide	
CC1(C)CC(O)CC(C)(C)N1[O] [tempol, 4-hydroxy-2,2,6,6,-tetramethylpiperidine-1-N-oxyl]												reduced the severity

From patent US20080312283A1, “Use of Hydroxylamine Derivates for Inhibiting Vitrectomy-Induced Cataracts” (Othera Pharmaceuticals, Inc., priority 2005, published 2008)
